In patent publication US20230101747A1 (Schrödinger, Inc., priority 2019, published 2023):

Assays:
[1] = target: T1, Full length human CDC7 protein co-expressed with DBF4 (Homo sapiens, UniProt O00311); experiment: CDC7 kinase biochemical assay (ADP-Glo, PDKtide substrate); conditions: 0.1 nM CDC7/DBF4, 1 uM ATP, 10 uM PDKtide, 4 h; read-out: CDC7 ADP-Glo PDKtide IC50
T1 construct: Full length human CDC7 protein co-expressed with DBF4; purchased SignalChem (China)
Description: CDC7 Kinase Biochemical Assay Protocol:
Full length human CDC7 protein co-expressed with DBF4 was purchased from SignalChem (China). CDC7 kinase activity was determined with PDKtide (SignalChem) as a substrate and by measuring ADP production using the ADP-Glo™ Kinase Assay kit (Promega) following the manufacturers instructions. The kinase reaction was performed using the following conditions: Buffer: 40 mM Tris pH 7.5, 20 mM MgCl2, 0.1 mg/ml BSA and 50 uM DTT. Final reaction mix contained 0.1 nM CDC7/DBF4, 1 uM ATP and 10 uM PDKtide. The kinase reaction time was 4 h. The ADP-Glo signal was measured using an EnVision plate reader (PerkinELmer).
Percent inhibition of CDC7 kinase activity was calculated based on the following formula: […]
SSample: the signal of compounds SHigh ctrl: the signal of high control (DMSO) SLow Ctrl: the signal of low control (positive control CDC7 inhibitor)

[2] = system: phosphorylation of MCM2 S53 (CDC7 substrate) in colo205 cells; experiment: Phosphorylated MCM2 MSD electrochemiluminescence assay; format: cell-based; conditions: Homo sapiens, COLO 205; colo205 cells, 20 h incubation; read-out: pMCM2-S53 MSD Colo205 IC50
Description: Phosphorylated MCM2 MSD Electrochemiluminescence Assay
The effect of CDC7 inhibitors on cellular phosphorylation of the CDC7 substrate MCM2 was determined using the following protocol:
A total of 40,000 colo205 cells in 100 uL culture medium (1640 medium+10% Fetal bovine serum+1% Penicillin-Streptomycin) were plated in 96-well cell culture plates and allowed to attach for 6 hours. 3-fold serial dilutions of test compounds were prepared in completed PBS at 25× final concentration and 4 uL of each were added to the cells and incubated for 20 hours at 37° C., 5% CO2. Each concentration was tested in duplicate. After the 20 h incubation, cells were washed with 150 uL PBS and lysed with 40 uL MSD lysis buffer (obtained from Meso Scale Diagnostics) supplied with 1× complete ULTRA cocktail inhibitor (obtained from Roche). To detect phosphorylation of MCM2 S53, 30 μL of capture antibody solution (obtained from Abnova, catalog number H00004171-M01, 1:500) was added to each well of MULTI-ARRAY 96-well High Bind Plate, and incubated overnight. The antibody solution was removed, wells blocked with BSA solution and plates washed, followed by addition of 30 ul of cell lysate per well. After 2 h incubation, plates were washed. 30 μL of 1× detection antibody solution (obtained from Abcam, catalog number ab109133, 1:1000) was then added to each well and incubate for 1 hour. Plates were washed and 30 μL of 1× secondary antibody solution (obtained from MSD, catalog number R32AB-1, 1:5000) was added to each well and incubate for 1 hour. Plates were washed and 150 μL of 1× Read Buffer T was added to each well of the MSD plate. The electrochemiluminescence signal was measured on a MESO SECTOR S600 plate reader. The percentage of remaining phosphorylated MCM2 signal was calculated following the equation below.
HC (high control): Cells treated with DMSO Cpds: Cells treated with test compounds LC (low control): Cells treated with positive control CDC7 inhibitor

T1 sequence (O00311 whole entry): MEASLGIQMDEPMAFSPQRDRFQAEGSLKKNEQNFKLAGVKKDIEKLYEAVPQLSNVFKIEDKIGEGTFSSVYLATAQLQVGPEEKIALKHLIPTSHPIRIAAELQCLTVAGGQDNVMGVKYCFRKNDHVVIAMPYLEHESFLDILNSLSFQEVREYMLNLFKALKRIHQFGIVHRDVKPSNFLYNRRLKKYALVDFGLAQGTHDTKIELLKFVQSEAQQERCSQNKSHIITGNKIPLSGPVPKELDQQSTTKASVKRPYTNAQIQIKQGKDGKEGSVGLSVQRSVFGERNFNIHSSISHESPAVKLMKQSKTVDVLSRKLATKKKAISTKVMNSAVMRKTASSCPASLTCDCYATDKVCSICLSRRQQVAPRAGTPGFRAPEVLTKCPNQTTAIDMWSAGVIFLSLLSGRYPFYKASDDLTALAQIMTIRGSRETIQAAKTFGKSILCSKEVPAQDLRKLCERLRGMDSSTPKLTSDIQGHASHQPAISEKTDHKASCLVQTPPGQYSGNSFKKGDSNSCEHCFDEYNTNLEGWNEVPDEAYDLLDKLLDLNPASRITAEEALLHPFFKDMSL
T1 sequence (Q9UBU7 whole entry partner): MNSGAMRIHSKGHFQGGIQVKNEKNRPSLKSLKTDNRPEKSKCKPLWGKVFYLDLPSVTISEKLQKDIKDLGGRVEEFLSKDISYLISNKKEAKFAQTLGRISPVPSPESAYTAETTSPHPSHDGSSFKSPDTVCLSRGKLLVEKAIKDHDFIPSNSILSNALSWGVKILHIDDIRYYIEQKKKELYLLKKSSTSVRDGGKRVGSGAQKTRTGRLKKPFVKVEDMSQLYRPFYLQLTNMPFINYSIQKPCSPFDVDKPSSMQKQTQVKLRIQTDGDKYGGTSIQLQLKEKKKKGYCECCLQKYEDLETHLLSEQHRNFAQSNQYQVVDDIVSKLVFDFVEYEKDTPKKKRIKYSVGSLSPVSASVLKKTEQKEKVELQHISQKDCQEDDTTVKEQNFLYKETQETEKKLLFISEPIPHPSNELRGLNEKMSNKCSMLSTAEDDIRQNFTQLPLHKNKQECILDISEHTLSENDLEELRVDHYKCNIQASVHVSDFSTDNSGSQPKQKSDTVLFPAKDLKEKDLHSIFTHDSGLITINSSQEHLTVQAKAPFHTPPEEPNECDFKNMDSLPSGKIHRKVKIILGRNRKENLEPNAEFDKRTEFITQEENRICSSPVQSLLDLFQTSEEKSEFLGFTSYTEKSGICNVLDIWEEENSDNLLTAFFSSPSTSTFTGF

| Structure (SMILES) | IC50 [1] [nM] | IC50 [2] [nM] |
| --- | --- | --- |
| Cc1ccnn1C[C@H]1CNC(=O)c2sc(-c3cn[nH]c3)c3c2N1CCO3 [Compound 62, (R)-6-((5-methyl-1H-pyrazol-1-yl)methyl)-2-(1H-pyrazol-4-yl)-4,5,7,8-tetrahydro-3-oxa-1-thia-5a,8-diazabenzo[cd]azulen-9(6H)-one] | > 10 |  |
| Cc1cnn(C[C@@H]2CNC(=O)c3sc(-c4cn[nH]c4)c4c3N2CCO4)c1 [Compound 63, (S)-6-((4-methyl-1H-pyrazol-1-yl)methyl)-2-(1H-pyrazol-4-yl)-4,5,7,8-tetrahydro-3-oxa-1-thia-5a,8-diazabenzo[cd]azulen-9(6H)-one] | 1 to 10 |  |
| COC[C@H]1CNC(=O)c2sc(-c3cn[nH]c3)c3c2N1CCC3 [Compound 88, (R)-6-(methoxymethyl)-2-(1H-pyrazol-4-yl)-4,5,7,8-tetrahydro-3H-1-thia-5a,8-diazabenzo[cd]azulen-9(6H)-one] | 1 to 10 |  |
| CCC(=O)C[C@@H]1CNC(=O)c2sc(-c3cn[nH]c3)c3c2N1CCC3 [Compound 90, (9R)-9-(2-oxobutyl)-3-(1H-pyrazol-4-yl)-2-thia-8,11-diazatricyclo[6.4.1.0^4,13]trideca-1(13),3-dien-12-one] | 1 to 10 |  |
| O=C1NC[C@H](CN2CCC2)N2CCCc3c(-c4cn[nH]c4)sc1c32 [Compound 94, (R)-6-(azetidin-1-ylmethyl)-2-(1H-pyrazol-4-yl)-4,5,7,8-tetrahydro-3H-1-thia-5a,8-diazabenzo[cd]azulen-9(6H)-one] | 1 to 10 |  |
| Cc1cnn(C[C@H]2CNC(=O)c3sc(-c4cn[nH]c4)c4c3N2CCC4)c1 [Compound 95, (R)-6-((4-methyl-1H-pyrazol-1-yl)methyl)-2-(1H-pyrazol-4-yl)-4,5,7,8-tetrahydro-3H-1-thia-5a,8-diazabenzo[cd]azulen-9(6H)-one] | 1 to 10 |  |
| N#CC[C@@H]1CNC(=O)c2sc(-c3cn[nH]c3)c3c2N1CCC3 [Compound 97, (R)-2-(9-oxo-2-(1H-pyrazol-4-yl)-4,5,6,7,8,9-hexahydro-3H-1-thia-5a,8-diazabenzo[cd]azulen-6-yl)acetonitrile] | < 1 |  |
| C[C@H]1CN2CC(F)(F)Cc3c(-c4cn[nH]c4)sc(c32)C(=O)N1 [Compound 101, (10S)-6,6-difluoro-10-methyl-3-(1H-pyrazol-4-yl)-2-thia-8,11-diazatricyclo[6.4.1.0^4,13]trideca-1(13),3-dien-12-one] | < 1 |  |
| COC[C@@H]1CNC(=O)c2sc(-c3ccncc3)c3c2N1CCO3 [Compound 105, (S)-6-(methoxymethyl)-2-(pyridin-4-yl)-4,5,7,8-tetrahydro-3-oxa-1-thia-5a,8-diazabenzo[cd]azulen-9(6H)-one] | < 1 |  |
| O=C1N[C@H](C2CCC2)CN2CCOc3c(-c4ccncc4)sc1c32 [Compound 106, (R)-7-cyclobutyl-2-(pyridin-4-yl)-4,5,7,8-tetrahydro-3-oxa-1-thia-5a,8-diazabenzo[cd]azulen-9(6H)-one] | < 1 |  |
| CC(C)(O)C[C@H]1CN2CC(F)(F)Oc3c(-c4cn[nH]c4)sc(c32)C(=O)N1 [Compound 116, (S)-4,4-difluoro-7-(2-hydroxy-2-methylpropyl)-2-(1H-pyrazol-4-yl)-4,5,7,8-tetrahydro-3-oxa-1-thia-5a,8-diazabenzo[cd]azulen-9(6H)-one] | < 1 |  |
| CC(C)(O)C[C@@H]1CN2CC(F)(F)Oc3c(-c4cn[nH]c4)sc(c32)C(=O)N1 [Compound 117, (R)-4,4-difluoro-7-(2-hydroxy-2-methylpropyl)-2-(1H-pyrazol-4-yl)-4,5,7,8-tetrahydro-3-oxa-1-thia-5a,8-diazabenzo-[cd]azulen-9(6H)-one] | < 1 |  |
| CC(C)(O)C[C@@H]1CN2CC(F)(F)Cc3c(-c4cn[nH]c4)sc(c32)C(=O)N1 [Compound 131, (R)-4,4-difluoro-7-(2-hydroxy-2-methylpropyl)-2-(1H-pyrazol-4-yl)-4,5,7,8-tetrahydro-3H-1-thia-5a,8-diazabenzo[cd]azulen-9(6H)-one] | < 1 |  |
| CC(C)(O)C[C@H]1CN2CC(F)(F)Cc3c(-c4cn[nH]c4)sc(c32)C(=O)N1 [Compound 132, (S)-4,4-difluoro-7-(2-hydroxy-2-methylpropyl)-2-(1H-pyrazol-4-yl)-4,5,7,8-tetrahydro-3H-1-thia-5a,8-diazabenzo[cd]azulen-9(6H)-one] | < 1 |  |
| COC[C@@H]1CNC(=O)c2sc(-c3cn[nH]c3)c3c2N1CC(F)(F)O3 [Compound 133, (S)-4,4-difluoro-6-(methoxymethyl)-2-(1H-pyrazol-4-yl)-4,5,7,8-tetrahydro-3-oxa-1-thia-5a,8-diazabenzo[cd]azulen-9(6H)-one] | < 1 |  |
| O=C1N[C@H](CN2CCOCC2)CN2CC(F)(F)Cc3c(-c4cn[nH]c4)sc1c32 [Compound 134, (R)-4,4-difluoro-7-(morpholinomethyl)-2-(1H-pyrazol-4-yl)-4,5,7,8-tetrahydro-3H-1-thia-5a,8-diazabenzo[cd]azulen-9(6H)-one] | 1 to 10 |  |
| COC1CN(C[C@H]2CN3CC(F)(F)Cc4c(-c5cn[nH]c5)sc(c43)C(=O)N2)C1 [Compound 141, (S)-4,4-difluoro-7-((3-methoxyazetidin-1-yl)methyl)-2-(1H-pyrazol-4-yl)-4,5,7,8-tetrahydro-3H-1-thia-5a,8-diazabenzo[cd]azulen-9(6H)-one] | 1 to 10 |  |

More lines, now with the values ahead:

| IC50 [1] [nM] | IC50 [2] [nM] | Structure (SMILES) |
| --- | --- | --- |
| < 1 | 256 | O=C1NC[C@@H](C2CCOCC2)N2CCOc3c(-c4cn[nH]c4)sc1c32 (single isomer, unassigned) [Compound 27] |
| < 1 | 5 | O=C1N[C@@H]([C@H]2CCCO2)CN2CC(F)(F)Cc3c(-c4cn[nH]c4)sc1c32 (single isomer, unassigned) [Compound 118] |
| < 1 | 12 | O=C1N[C@@H](C23CCC(CC2)O3)CN2CC(F)(F)Cc3c(-c4cn[nH]c4)sc1c32 (single isomer, unassigned) [Compound 121] |
| < 1 | 12 | COC[C@H]1CN2C[C@@H](F)Cc3c(-c4cn[nH]c4)sc(c32)C(=O)N1 (single isomer, unassigned) [Compound 125] |
| < 1 | 902 | COC[C@H]1CN2C[C@H](F)Cc3c(-c4cn[nH]c4)sc(c32)C(=O)N1 (single isomer, unassigned) [Compound 126] |
| < 1 | 16 | C[C@H]1CN2CCOc3c(-c4cn[nH]c4)sc(c32)C(=O)N1 [Compound 16, (S)-7-methyl-2-(1H-pyrazol-4-yl)-4,5,7,8-tetrahydro-3-oxa-1-thia-5a,8-diazabenzo[cd]azulen-9(6H)-one] |
| < 1 |  | O=C1NC2(CCOCC2)CN2CCOc3c(-c4cn[nH]c4)sc1c32 [Compound 64, 2-(1H-pyrazol-4-yl)-2′,3′,4,5,5′,6′-hexahydro-6H-3-oxa-1-thia-5a,8-diazaspiro[benzo[cd]azulene-7,4′-pyran]-2,2a1(9a)-dien-9(8H)-one] |
| < 1 |  | O=C1N[C@@H](C2CCOCC2)CN2CCOc3c(-c4cn[nH]c4)sc1c32 [Compound 65, (S)-2-(1H-pyrazol-4-yl)-7-(tetrahydro-2H-pyran-4-yl)-4,5,7,8-tetrahydro-3-oxa-1-thia-5a,8-diazabenzo[cd]azulen-9(6H)-one] |
| < 1 |  | O=C1NC[C@H](CO)N2CCCc3c(-c4cn[nH]c4)sc1c32 [Compound 87, (R)-6-(hydroxymethyl)-2-(1H-pyrazol-4-yl)-4,5,7,8-tetrahydro-3H-1-thia-5a,8-diazabenzo[cd]azulen-9(6H)-one] |
| < 1 |  | O=C1NC[C@@H](CC2(O)CC2)N2CCCc3c(-c4cn[nH]c4)sc1c32 [Compound 89, (9R)-9-[(1-hydroxycyclopropyl)methyl]-3-(1H-pyrazol-4-yl)-2-thia-8,11-diazatricyclo [6.4.1.0^4,13]trideca-1(13),3-dien-12-one] |
| < 1 |  | O=C1N[C@@H](C2CCC2)[C@H](CO)N2CCOc3c(-c4cn[nH]c4)sc1c32 [Compound 92, (9R,10S)-10-cyclobutyl-9-(hydroxymethyl)-3-(1H-pyrazol-4-yl)-5-oxa-2-thia-8,11-diazatricyclo[6.4.1.0^4,13]trideca-1(13),3-dien-12-one] |
